Assay results published in paper PMC6366404, “4-(3-Nitrophenyl)thiazol-2-ylhydrazone derivatives as antioxidants and selective hMAO-B inhibitors: synthesis, biological activity and computational analysis” (Journal of Enzyme Inhibition and Medicinal Chemistry, 2019).

Columns and labels:
[1] = Phosphomolybdenum assay (PhosphoMo), total antioxidant activity; conditions: concentration at which absorbance was 0.5
Protocol: The total antioxidant activity of the compounds was evaluated by phosphomolybdenum method according to Zengin et al.[35]. The sample solution (0.3 ml) was combined with 3 ml of reagent solution (0.6 M sulphuric acid, 28 mM sodium phosphate, and 4 mM ammonium molybdate) and the absorbance was recorded at 695 nm after 90 min incubation at 95 °C. The EC50, which is the effective concentration at which the absorbance was 0.5, was calculated for each compound and trolox, as a reference drug.

[2] = DPPH radical scavenging activity
Protocol: The radical scavenging effect of the compounds using the 1,1-diphenyl-2-picrylhydrazyl (DPPH) radical was estimated according to Zengin et al.[36]. The sample solution (1 ml) was added to 4 ml of a 0.004% solution of DPPH in methanol. The sample absorbance was recorded at 517 nm after 30 min incubation at room temperature in the dark.
(§1) The scavenging activity of the compounds on the ABTS radical cation [ABTS,2,2′-azino-bis(3-ethylbenzothiazoline)-6-sulphonic acid] was measured according to the method of Zengin et al.[37] with slight modification. Briefly, ABTS^+ was produced directly by reacting a 7 mM ABTS solution with 2.45 mM potassium persulphate and allowing the mixture to incubate for 12–16 h in the dark at room temperature. Prior to initiating the assay, the ABTS solution was diluted with methanol to an absorbance of 0.700 ± 0.02 at 734 nm. The sample solution (1 ml) was added to the ABTS^+ solution (2 ml) and mixed, and the sample absorbance was recorded at 734 nm after 30 min incubation at room temperature. The corresponding IC50 value, which is the effective concentration at which 50% of DPPH/ABTS radicals are scavenged, was calculated for each compound and trolox, as a reference drug.

[3] = ABTS radical cation scavenging activity
Protocol: as §1

[4] = Cupric ion reducing activity (CUPRAC)
Protocol: The cupric ion reducing activity (CUPRAC) was determined according to the method of Zengin et al.[38]. The sample solution (0.5 ml) was added to a premixed reaction mixture containing CuCl2 (1 ml, 10 mM), neocuproine (1 ml, 7.5 mM), and NH4Ac buffer (1 ml, 1 M, pH 7.0). Similarly, a blank was prepared by adding the sample solution (0.5 ml) to a premixed reaction mixture (3 ml) without CuCl2. The absorbances of the sample and blank were subsequently recorded at 450 nm after 30 min incubation at room temperature. The absorbance of the blank was subtracted from that of the sample.
(§2) The FRAP (ferric reducing antioxidant power) assay was carried out as described by Zengin et al.[38]. The sample solution (0.1 ml) was added to the premixed FRAP reagent (2 ml) containing acetate buffer (0.3 M, pH 3.6), 2,4,6-tris(2-pyridyl)-s-triazine (10 mM) in 40 mM HCl, and ferric chloride (20 mM) in a ratio of 10/1/1 (v/v/v). The absorbance of the sample was subsequently recorded at 593 nm after 30 min incubation at room temperature. Both results were expressed as EC50 values, using trolox as a reference drug.

[5] = FRAP (ferric reducing antioxidant power) assay
Protocol: as §2

[6] = Metal chelating activity on ferrous ions; conditions: ferrozine
Protocol: Metal chelating activity on ferrous ions was evaluated by the method previously described. Briefly, the sample solution (2 ml) was added to FeCl2 solution (0.05 ml, 2 mM). The reaction was initiated by the addition of 5 mM ferrozine (0.2 ml). Similarly, a blank was prepared by adding the sample solution (2 ml) to FeCl2 solution (0.05 ml, 2 mM) and water (0.2 ml) without ferrozine. Then, the sample and blank absorbance were recorded at 562 nm after incubation for 10 min at room temperature. The absorbance of the blank was subtracted from that of the sample. EDTA was used as a positive control and this property was expressed as IC50 value for each compound.

CC(=NNc1nc(-c2cccc([N+](=O)[O-])c2)cs1)c1cc2ccccc2oc1=O showed a melting point of 183 to 185 °C.
Compound CC(=NNc1nc(-c2cccc([N+](=O)[O-])c2)cs1)c1cnccn1 [Compound 22, 1-(4-(3-Nitrophenyl)thiazol-2-yl)-2-(1-(pyrazin-2-yl)ethylidene)hydrazine] has an EC50 [1] of 1280 ± 30 µM, an IC50 [2] of 1340 ± 10 µM and an IC50 [3] of 1040 ± 10 µM. The EC50 [4] was 910 ± 20 µM, the EC50 [5] was 480 ± 40 µM and the IC50 [6] was 3860 ± 290 µM. The melting point was 243 to 245 °C.
O=[N+]([O-])c1cccc(-c2csc(NN=Cc3ccncc3)n2)c1 [Compound 18, 1-(4-(3-Nitrophenyl)thiazol-2-yl)-2-(pyridin-4-ylmethylene)hydrazine] gave an EC50 [1] of 4700 ± 970 µM, an IC50 [2] of 1370 ± 10 µM and an IC50 [3] of 1040 ± 10 µM. The EC50 [4] was 580 ± 10 µM, the EC50 [5] was 350 ± 10 µM and the IC50 [6] was greater than 5000 µM.
With O=[N+]([O-])c1cccc(-c2csc(NN=C(c3ccccc3)c3ccccc3)n2)c1 the melting point was 166 to 168 °C.
CC(=NNc1nc(-c2cccc([N+](=O)[O-])c2)cs1)c1c[nH]c2ccccc12 gave a melting point of 209 to 211 °C.
In the case of CC(=NNc1nc(-c2cccc([N+](=O)[O-])c2)cs1)c1ccc(C(C)=NNc2nc(-c3cccc([N+](=O)[O-])c3)cs2)cc1, the melting point is reported as 283 to 285 °C.
With CC(=NNc1nc(-c2cccc([N+](=O)[O-])c2)cs1)c1ccc2ccccc2c1 the melting point was 152 to 154 °C.
Work on CCC(=NNc1nc(-c2cccc([N+](=O)[O-])c2)cs1)c1ccccc1 yielded a melting point of 215 to 217 °C.
Compound O=[N+]([O-])c1cccc(-c2csc(NN=Cc3ccccc3)n2)c1 [Compound 7, 1-Benzylidene-2-(4-(3-nitrophenyl)thiazol-2-yl)hydrazine] has an EC50 [1] of 1290 ± 160 µM, an IC50 [2] of 1380 ± 10 µM and an IC50 [3] of 1040 ± 10 µM. It also gave an EC50 [4] of 660 ± 10 µM, an EC50 [5] of 660 ± 40 µM and an IC50 [6] greater than 5000 µM. It also gave a melting point of 193 to 195 °C.
For CC(=NNc1nc(-c2cccc([N+](=O)[O-])c2)cs1)c1cccnc1 [Compound 20, 1-(4-(3-Nitrophenyl)thiazol-2-yl)-2-(1-(pyridin-3-yl)ethylidene)hydrazine], the EC50 [1] was 1770 ± 70 µM, the IC50 [2] was 1290 ± 10 µM and the IC50 [3] was 1040 ± 10 µM. The EC50 [4] was 420 ± 20 µM, the EC50 [5] was 320 ± 20 µM and the IC50 [6] was greater than 5000 µM.
CC(=NNc1nc(-c2cccc([N+](=O)[O-])c2)cs1)c1cccc([N+](=O)[O-])c1 showed a melting point of 214 to 216 °C.
For O=[N+]([O-])c1cccc(-c2csc(NN=Cc3ccccc3[N+](=O)[O-])n2)c1 [Compound 8, 1-(2-Nitrobenzylidene)-2-(4-(3-nitrophenyl)thiazol-2-yl)hydrazine], the EC50 [1] was 1700 ± 50 µM, the IC50 [2] was 1470 ± 10 µM and the IC50 [3] was 1040 ± 10 µM. It also gave an EC50 [4] of 440 ± 20 µM, an EC50 [5] of 470 ± 40 µM and an IC50 [6] greater than 5000 µM. The melting point was 228 to 230 °C.
For CC(=NNc1nc(-c2cccc([N+](=O)[O-])c2)cs1)c1ccc([N+](=O)[O-])cc1, the melting point was 258 to 260 °C.
With O=[N+]([O-])c1cccc(-c2csc(NN=Cc3ccccn3)n2)c1 [Compound 16, 1-(4-(3-Nitrophenyl)thiazol-2-yl)-2-(pyridin-2-ylmethylene)hydrazine] the EC50 [1] was 1130 ± 10 µM, the IC50 [2] was 1320 ± 10 µM and the IC50 [3] was 1060 ± 20 µM. For the same compound, the EC50 [4] was 530 ± 20 µM, the EC50 [5] was 510 ± 20 µM and the IC50 [6] was greater than 5000 µM.
With O=[N+]([O-])c1cccc(-c2csc(NN=Cc3ccc4c(c3)OCO4)n2)c1 the melting point was 255 to 256 °C.
With CC(=NNc1nc(-c2cccc([N+](=O)[O-])c2)cs1)c1ccncc1 [Compound 21, 1-(4-(3-Nitrophenyl)thiazol-2-yl)-2-(1-(pyridin-4-yl)ethylidene)hydrazine] the EC50 [1] was 4480 ± 180 µM, the IC50 [2] was 1340 ± 20 µM and the IC50 [3] was 1040 ± 10 µM. It also gave an EC50 [4] of 460 ± 20 µM, an EC50 [5] of 270 ± 10 µM and an IC50 [6] greater than 5000 µM.
For CC(=NNc1nc(-c2cccc([N+](=O)[O-])c2)cs1)c1ccc(Cl)s1 [Compound 6, 1-(1-(5-Chlorothiophen-2-yl)ethylidene)-2-(4-(3-nitrophenyl)thiazol-2-yl)hydrazine], the EC50 [1] was 1250 ± 50 µM, the IC50 [2] was 1180 ± 10 µM and the IC50 [3] was 1080 ± 10 µM. It also gave an EC50 [4] of 490 ± 10 µM, an EC50 [5] of 620 ± 70 µM and an IC50 [6] greater than 5000 µM. For the same compound, the melting point was 227 to 229 °C.
CC(=NNc1nc(-c2cccc([N+](=O)[O-])c2)cs1)c1ccccn1 [Compound 19, 1-(4-(3-Nitrophenyl)thiazol-2-yl)-2-(1-(pyridin-2-yl)ethylidene)hydrazine] showed an EC50 [1] of 2640 ± 340 µM, an IC50 [2] of 1360 ± 10 µM and an IC50 [3] of 1040 ± 10 µM. It also gave an EC50 [4] of 510 ± 10 µM, an EC50 [5] of 380 ± 20 µM and an IC50 [6] greater than 5000 µM.
O=[N+]([O-])c1cccc(-c2csc(NN=Cc3c[nH]c4ccccc34)n2)c1 gave a melting point of 253 to 255 °C.
Compound O=C(O)CN(CCN(CC(=O)O)CC(=O)O)CC(=O)O [EDTA, reference compound] has an IC50 [6] of 20 ± 1 µM.
Work on CC(=NNc1nc(-c2cccc([N+](=O)[O-])c2)cs1)c1ccc2c(c1)OCCO2 yielded a melting point of 242 to 244 °C.
O=[N+]([O-])c1cccc(-c2csc(NN=Cc3cccc4ccccc34)n2)c1 [Compound 28, 1-(Naphthalen-1-ylmethylene)-2-(4-(3-nitrophenyl)thiazol-2-yl)hydrazine] showed an EC50 [1] of 4930 ± 830 µM, an IC50 [2] of 1300 ± 10 µM and an IC50 [3] of 1050 ± 10 µM. The EC50 [4] was 510 ± 30 µM, the EC50 [5] was 410 ± 10 µM and the IC50 [6] was greater than 5000 µM. For the same compound, the melting point was 212 to 214 °C.
For Cc1c(C)c2c(c(C)c1O)CCC(C)(C(=O)O)O2 (stereo not shown) [Trolox, trolox, reference compound], the EC50 [1] was 1130 ± 50 µM, the IC50 [2] was 400 ± 10 µM and the IC50 [3] was 660 ± 20 µM. The EC50 [4] was 240 ± 20 µM and the EC50 [5] was 160 ± 10 µM.
CC(=NNc1nc(-c2cccc([N+](=O)[O-])c2)cs1)c1cc2ccccc2o1 gave a melting point of 228 to 230 °C.
With CC(=NNc1nc(-c2cccc([N+](=O)[O-])c2)cs1)c1cccc2ccccc12 [Compound 29, 1-(1-(Naphthalen-1-yl)ethylidene)-2-(4-(3-nitrophenyl)thiazol-2-yl)hydrazine] the EC50 [1] was 9390 ± 310 µM, the IC50 [2] was 1420 ± 10 µM and the IC50 [3] was 1040 ± 10 µM. The EC50 [4] was 460 ± 10 µM, the EC50 [5] was 530 ± 20 µM and the IC50 [6] was greater than 5000 µM. The melting point was 226 to 228 °C.
O=[N+]([O-])c1cccc(C=NNc2nc(-c3cccc([N+](=O)[O-])c3)cs2)c1 showed a melting point of 222 to 224 °C.
